Test results taken from patent US10533006B2, “Nitrogen-containing heterocycle and carbocycle derivatives having TrkA inhibitory activity” (Shionogi & Co., Ltd., priority 2016, dated 2020).
Read-outs that look alike come from different tables or passages of the source.

Target: T1, human TrkA (Homo sapiens, UniProt P04629)
T1 construct: purchased Lifetechnologies PV3144
Assay: Human TrkA inhibition assay
Format: biochemical
Details: human TrkA phosphorylation inhibition, ATP 500 μmol/L
Procedure: Seven point five L per well of human TrkA (PV3144, Lifetechnologies, final concentration: 1 nmol/L) suspended in the assay buffer (100 mmol/L 4-(2-hydroxyethyl)-1-piperazineethanesulfonic acid (HEPES), 10 mmol/L magnesium chloride, 0.003 vol % Brij-35, 0.004 vol % Tween20 and 1 mmol/L dithiothreitol (DTT)) was applied in a 384 well plate and the plate was pre-incubated for 15 min at room temperature with 0.4 μL of each compound (final concentration: 200 μmol/L-0.1 nM) dissolved in DMSO. Then, fluorescent substrate (FL-peptide 27, 760424, PerkinElmer, final concentration: 1.5 μmol/L) and ATP (final concentration 500 μmol/L) dissolved in the assay buffer was added in each well. After the incubation of 120 min at 37° C., fifteen μL of termination buffer (100 mmol/L HEPES, 40 mmol/L ethylenediaminetetraacetic acid (EDTA), 10 mmol/L magnesium chloride, 0.003 vol % Brij-35, 0.004 vol % Tween20, 1 mmol/L DTT and 0.16 vol % Coating Reagent 3) was added in each well to stop the enzyme reaction. Fluorescent intensities (FI) of phosphorylated and non-phosphorylated fluorescent substrates were measured by LabChip EZReader II (Caliper LifeSciences, Inc.), and conversion ratio (CR) was calculated by the following formula-1. The CR in the well applied with DMSO alone was used as a negative control and the CR in the well without applying TrkA was used as a positive control. The inhibitory effect of each compound on TrkA phosphorylation was calculated by the following formula-2. CR (%)=(FI of phosphorylated substrate/(FI of phosphorylated substrate+FI of non-phosphorylated substrate))×100 (Formula-1) Phosphorylation inhibition (%)=(1−(CR with compound treatment−CR of positive control)/(CR of negative control−CR of positive control))×100 (Formula-2)
IC50 values (nmol/L) were determined by the logistic regression using the inhibition data in 10 points of 3-fold dilution series at a compound concentration range of 2 μmol/L to 0.1 nmol/L, or 15 points of 3-fold dilution series at the range of 200 μmol/L to 0.04 nmol/L.

T1 sequence (P04629 33-796): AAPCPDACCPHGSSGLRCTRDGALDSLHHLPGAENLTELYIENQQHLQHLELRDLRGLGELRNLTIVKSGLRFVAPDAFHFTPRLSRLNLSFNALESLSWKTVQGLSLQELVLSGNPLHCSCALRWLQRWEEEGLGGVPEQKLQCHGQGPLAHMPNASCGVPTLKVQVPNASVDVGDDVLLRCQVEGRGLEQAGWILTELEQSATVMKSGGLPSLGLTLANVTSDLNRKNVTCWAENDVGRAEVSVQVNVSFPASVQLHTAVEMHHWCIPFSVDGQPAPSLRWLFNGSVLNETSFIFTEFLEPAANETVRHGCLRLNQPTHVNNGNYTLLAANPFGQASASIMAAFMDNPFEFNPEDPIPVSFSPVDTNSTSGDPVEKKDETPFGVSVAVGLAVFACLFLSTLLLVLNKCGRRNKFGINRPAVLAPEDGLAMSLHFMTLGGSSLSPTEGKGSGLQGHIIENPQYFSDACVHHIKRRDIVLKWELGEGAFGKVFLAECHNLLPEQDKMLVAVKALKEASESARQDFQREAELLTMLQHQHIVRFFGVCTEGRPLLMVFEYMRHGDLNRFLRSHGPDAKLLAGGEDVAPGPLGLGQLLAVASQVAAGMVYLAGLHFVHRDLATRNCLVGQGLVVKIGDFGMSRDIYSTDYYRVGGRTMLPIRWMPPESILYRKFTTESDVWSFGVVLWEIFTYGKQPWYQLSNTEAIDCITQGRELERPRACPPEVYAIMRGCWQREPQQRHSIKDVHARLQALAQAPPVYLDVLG

IC50 (read-out: IC50_nM) [nM] | IC50 (read-out: IC50 value) [nM] | SMILES
< 100 |  | COCCN1C[C@@H](NC(=O)Nc2c(C)c(-c3ccnc(C(=O)NO)c3)nn2-c2ccccc2)[C@H](c2ccccc2)C1 (racemic) [Compound I-63]
< 100 |  | COCCN1C[C@@H](NC(=O)Nc2c(C)c(-c3cnc4c(c3)c(C(=O)OC)nn4C)nn2-c2ccccc2)[C@H](c2ccccc2)C1 (racemic) [Compound I-64]
< 100 |  | COCCN1C[C@@H](NC(=O)Nc2c(C)c(-c3cnc4c(c3)c(CO)nn4C)nn2-c2ccccc2)[C@H](c2ccccc2)C1 (racemic) [Compound I-65]
< 100 |  | COCCN1C[C@@H](NC(=O)Nc2c(C)c(-c3ccnc(C(=O)NC4COC4)c3)nn2-c2ccccc2)[C@H](c2ccccc2)C1 (racemic) [Compound I-69]
< 100 |  | COCCN1C[C@@H](NC(=O)Nc2c(C)c(-c3ccnc(C(=O)NC4CC(F)(F)C4)c3)nn2-c2ccccc2)[C@H](c2ccccc2)C1 (racemic) [Compound I-70]
< 100 |  | COCCN1C[C@@H](NC(=O)Nc2c(C)c(-c3ccnc(C(=O)NC4CCCCC4)c3)nn2-c2ccccc2)[C@H](c2ccccc2)C1 (racemic) [Compound I-71]
< 100 |  | COCCN1C[C@@H](NC(=O)Nc2c(C)c(-c3ccnc(C(=O)NC4CCS(=O)(=O)CC4)c3)nn2-c2ccccc2)[C@H](c2ccccc2)C1 (racemic) [Compound I-73]
 | 3.1 | COCCN1C[C@@H](NC(=O)Nc2c(C)c(-c3cnc4c(c3)oc(=O)n4C)nn2-c2ccccc2)[C@H](c2ccccc2)C1 (racemic) [Compound I-76]
< 100 |  | COCCN1C[C@@H](NC(=O)Nc2c(C)c(-c3cnc(OC)c(C(=O)NC4CCCCC4)c3)nn2-c2ccccc2)[C@H](c2ccccc2)C1 (racemic) [Compound I-77]
< 100 |  | COCCN1C[C@@H](NC(=O)Nc2c(C)c(-c3cnc(OC)c(C(=O)NC4CCS(=O)(=O)CC4)c3)nn2-c2ccccc2)[C@H](c2ccccc2)C1 (racemic) [Compound I-79]
< 100 |  | COCCN1C[C@@H](NC(=O)Nc2c(C)c(-c3cnc(OC)c(C(=O)NC4CC(F)(F)C4)c3)nn2-c2ccccc2)[C@H](c2ccccc2)C1 (racemic) [Compound I-81]
< 100 |  | COCCN1C[C@@H](NC(=O)Nc2c(C)c(-c3cnc(OC)c(C(=O)NC4CCC(F)(F)CC4)c3)nn2-c2ccccc2)[C@H](c2ccccc2)C1 (racemic) [Compound I-83]
< 100 |  | COCCN1C[C@@H](NC(=O)Nc2c(C)c(-c3cnc4c(c3)c(C)nn4C)nn2-c2ccccc2)[C@H](c2ccccc2)C1 (racemic) [Compound I-89]
 | 2.2 | COCCN1C[C@@H](NC(=O)Nc2c(C)c(-c3cnc4c(cnn4C)c3)nn2-c2ccccc2)[C@H](c2ccnc(F)c2)C1 (racemic) [Compound I-90]
< 100 |  | COCCN1C[C@@H](NC(=O)Nc2c(C)c(-c3ccc(N=S(C)(C)=O)nc3)nn2-c2ccccc2)[C@H](c2ccccc2)C1 (racemic) [Compound I-91]
< 100 |  | COCCN1C[C@@H](NC(=O)Nc2c(C)c(-c3cnc4c(c3)c(OC)nn4C)nn2-c2ccccc2)[C@H](c2ccccc2)C1 (racemic) [Compound I-95]
< 100 |  | COCCN1C[C@@H](NC(=O)Nc2c(C)c(-c3ccnc(N=S(C)(C)=O)c3)nn2-c2ccccc2)[C@H](c2ccccc2)C1 (racemic) [Compound I-96]
< 100 |  | COCCN1C[C@@H](NC(=O)Nc2c(C)c(-c3cnc4c(c3)nc(CO)n4C)nn2-c2ccccc2)[C@H](c2ccccc2)C1 (racemic) [Compound I-97]
< 100 |  | COCCN1C[C@@H](NC(=O)Nc2c(C)c(-c3cnn(C)c3)nn2-c2ccccc2)[C@H](c2cc(F)ncc2F)C1 (racemic) [Compound I-98]
< 100 |  | COCCN1C[C@@H](NC(=O)Nc2c(C)c(-c3cnc4c(c3)c(=O)n(C)n4C)nn2-c2ccccc2)[C@H](c2ccccc2)C1 (racemic) [Compound I-99]
 | 6.8 | COCCN1C[C@@H](NC(=O)Nc2c(C)c(-c3ccnc(C(=O)NOC)c3)nn2-c2ccccc2)[C@H](c2ccccc2)C1 (racemic) [Compound I-100]
< 100 |  | COCCN1C[C@@H](NC(=O)Nc2c(C)c(-c3cnc(OC)c(C(=O)NC4CS(=O)(=O)C4)c3)nn2-c2ccccc2)[C@H](c2ccccc2)C1 (racemic) [Compound I-101]
< 100 |  | COCCN1C[C@@H](NC(=O)Nc2c(C)c(-c3cnc4c(c3)c(C)nn4C)nn2-c2ccccc2)[C@H](c2ccnc(F)c2)C1 (racemic) [Compound I-104]

IC50 (read-out: IC50_nM) [nM] | IC50 (read-out: IC50 value) [nM] | SMILES
< 100 |  | COCCN1C[C@@H](NC(=O)Nc2c(C)c(-c3cnc4c(c3)nnn4C)nn2-c2ccccc2)[C@H](c2ccnc(F)c2)C1 (racemic) [Compound I-105]
< 100 |  | COCCN1C[C@@H](NC(=O)Nc2c(C)c(-c3cncc(N=S(C)(C)=O)c3)nn2-c2ccccc2)[C@H](c2ccccc2)C1 (racemic) [Compound I-106]
< 100 |  | COCCN1C[C@@H](NC(=O)Nc2c(C)c(-c3cnc4[nH]c(=O)oc4c3)nn2-c2ccccc2)[C@H](c2ccccc2)C1 (racemic) [Compound I-107]
< 100 |  | COCCN1C[C@@H](NC(=O)Nc2c(C)c(-c3cc(C(=O)NC4CCCCC4)c(=O)n(C)c3)nn2-c2ccccc2)[C@H](c2ccccc2)C1 (racemic) [Compound I-108]
< 100 |  | COCCN1C[C@@H](NC(=O)Nc2c(C)c(-c3cc(C(=O)N[C@@H]4CCCOC4)c(=O)n(C)c3)nn2-c2ccccc2)[C@H](c2ccccc2)C1 (racemic) [Compound I-109]
< 100 |  | COCCN1C[C@@H](NC(=O)Nc2c(C)c(-c3cc(C(=O)NC4CCS(=O)(=O)CC4)c(=O)n(C)c3)nn2-c2ccccc2)[C@H](c2ccccc2)C1 (racemic) [Compound I-110]
< 100 |  | COCCN1C[C@@H](NC(=O)Nc2c(C)c(-c3cc(C(=O)N[C@H]4CCOC4)c(=O)n(C)c3)nn2-c2ccccc2)[C@H](c2ccccc2)C1 (racemic) [Compound I-111]
< 100 |  | COCCN1C[C@@H](NC(=O)Nc2c(C)c(-c3cc(C(=O)N[C@@H]4CCOC4)c(=O)n(C)c3)nn2-c2ccccc2)[C@H](c2ccccc2)C1 (racemic) [Compound I-112]
< 100 |  | COCCN1C[C@@H](NC(=O)Nc2c(C)c(-c3cc(C(=O)NC4CC(F)(F)C4)c(=O)n(C)c3)nn2-c2ccccc2)[C@H](c2ccccc2)C1 (racemic) [Compound I-113]
< 100 |  | COCCN1C[C@@H](NC(=O)Nc2c(C)c(-c3cc(C(=O)NC[C@@H](C)O)c(=O)n(C)c3)nn2-c2ccccc2)[C@H](c2ccccc2)C1 (racemic) [Compound I-114]
< 100 |  | COCCN1C[C@@H](NC(=O)Nc2c(C)c(-c3cc(C(=O)NC(C)(C)CO)c(=O)n(C)c3)nn2-c2ccccc2)[C@H](c2ccccc2)C1 (racemic) [Compound I-115]
< 100 |  | COCCN1C[C@@H](NC(=O)Nc2c(C)c(-c3cnc(N=S(C)(C)=O)c(C)c3)nn2-c2ccccc2)[C@H](c2ccccc2)C1 (racemic) [Compound I-121]
< 100 |  | CCOc1ncc(-c2nn(-c3ccccc3)c(NC(=O)N[C@@H]3CN(CCOC)C[C@H]3c3ccccc3)c2C)cc1C(=O)NC (racemic) [Compound I-122]
< 100 |  | CNC(=O)c1cc(-c2nn(-c3ccccc3)c(NC(=O)N[C@@H]3CN(CCOC)C[C@H]3c3ccccc3)c2C)cnc1OCCO (racemic) [Compound I-123]
< 100 |  | CNC(=O)c1cc(-c2nn(-c3ccccc3)c(NC(=O)N[C@@H]3CN(CCOC)C[C@H]3c3ccccc3)c2C)cnc1OCCOC (racemic) [Compound I-124]
< 100 |  | CNC(=O)c1cc(-c2nn(-c3ccccc3)c(NC(=O)N[C@@H]3CN(CCOC)C[C@H]3c3ccccc3)c2C)cnc1OCC(F)F (racemic) [Compound I-125]
< 100 |  | CNC(=O)c1cc(-c2nn(-c3ccccc3)c(NC(=O)N[C@@H]3CN(CCOC)C[C@H]3c3ccccc3)c2C)cnc1OCF (racemic) [Compound I-126]
< 100 |  | CNC(=O)c1cc(-c2nn(-c3ccccc3)c(NC(=O)N[C@@H]3CN(CCOC)C[C@H]3c3ccccc3)c2C)cn(CCOC)c1=O (racemic) [Compound I-127]
< 100 |  | CNC(=O)c1cc(-c2nn(-c3ccccc3)c(NC(=O)N[C@@H]3CN(CCOC)C[C@H]3c3ccccc3)c2C)cnc1OC(F)F (racemic) [Compound I-128]
< 100 |  | CCNC(=O)c1cc(-c2nn(-c3ccccc3)c(NC(=O)N[C@@H]3CN(CCOC)C[C@H]3c3ccccc3)c2C)cnc1OCC (racemic) [Compound I-129]
< 100 |  | CCNC(=O)c1cc(-c2nn(-c3ccccc3)c(NC(=O)N[C@@H]3CN(CCOC)C[C@H]3c3ccccc3)c2C)cnc1OCCOC (racemic) [Compound I-130]
< 100 |  | CCNC(=O)c1cc(-c2nn(-c3ccccc3)c(NC(=O)N[C@@H]3CN(CCOC)C[C@H]3c3ccccc3)c2C)cnc1OCC(F)F (racemic) [Compound I-131]
